Results taken from US12612410B2 (CHILDREN'S HOSPITAL MEDICAL CENTER, priority 2020, dated 2026).

Columns and labels:
FLT3 = target: T1, FLT3 (Homo sapiens, UniProt P36888); experiment: RBC HotSpot Kinase Assay, FLT3; format: biochemical; parameters: purchased Reaction Biology (RBC), HotSpot kinase assay; settings: isolated kinase, 33P-ATP
T1 sequence (P36888 27-993): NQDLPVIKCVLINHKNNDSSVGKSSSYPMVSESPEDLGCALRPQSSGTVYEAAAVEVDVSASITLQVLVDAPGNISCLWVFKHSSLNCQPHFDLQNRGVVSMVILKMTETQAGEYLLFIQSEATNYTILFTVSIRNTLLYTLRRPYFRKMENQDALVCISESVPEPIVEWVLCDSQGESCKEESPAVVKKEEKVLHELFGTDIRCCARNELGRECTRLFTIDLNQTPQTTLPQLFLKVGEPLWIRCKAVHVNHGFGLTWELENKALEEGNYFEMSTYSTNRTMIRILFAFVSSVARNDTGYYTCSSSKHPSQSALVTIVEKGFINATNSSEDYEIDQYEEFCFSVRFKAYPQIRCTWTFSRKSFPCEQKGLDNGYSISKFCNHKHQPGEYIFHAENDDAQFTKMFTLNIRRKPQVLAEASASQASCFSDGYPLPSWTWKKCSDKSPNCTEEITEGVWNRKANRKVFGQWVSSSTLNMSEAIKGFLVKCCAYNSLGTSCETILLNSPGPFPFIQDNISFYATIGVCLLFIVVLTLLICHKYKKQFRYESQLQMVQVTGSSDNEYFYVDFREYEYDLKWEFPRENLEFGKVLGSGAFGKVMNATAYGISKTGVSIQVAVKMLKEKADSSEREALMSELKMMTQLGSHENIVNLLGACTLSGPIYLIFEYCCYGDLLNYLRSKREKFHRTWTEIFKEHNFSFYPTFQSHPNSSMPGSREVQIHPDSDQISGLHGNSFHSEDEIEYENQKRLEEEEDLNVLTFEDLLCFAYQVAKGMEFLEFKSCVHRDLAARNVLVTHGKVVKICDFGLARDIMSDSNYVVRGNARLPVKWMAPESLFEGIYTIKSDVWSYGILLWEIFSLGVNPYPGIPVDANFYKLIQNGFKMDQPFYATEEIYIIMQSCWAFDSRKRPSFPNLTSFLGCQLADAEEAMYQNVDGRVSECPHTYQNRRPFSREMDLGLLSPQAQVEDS
Method in brief: (§1)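 Read-out was P81 filter binding of 33P incorporated into substrate by isolated kinase during a 2 h room-temperature reaction. Compound was preincubated with enzyme for 20 min at room temperature; buffer was Hepes pH 7.5 with Mg2+, EGTA, Brij35 and 1% DMSO.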

IRAK1 = target: T2, IRAK1 (Homo sapiens, UniProt P51617); experiment: RBC HotSpot Kinase Assay, IRAK1; format: biochemical; settings: isolated kinase, 33P-ATP
T2 construct: purchased Reaction Biology (RBC), HotSpot kinase assay
Method in brief: as §1

IRAK4 = target: T3, IRAK4 (Homo sapiens, UniProt Q9NWZ3); experiment: RBC HotSpot Kinase Assay, IRAK4; format: biochemical; parameters: purchased Reaction Biology (RBC), HotSpot kinase assay; settings: isolated kinase, 33P-ATP
T3 sequence (Q9NWZ3 1-460): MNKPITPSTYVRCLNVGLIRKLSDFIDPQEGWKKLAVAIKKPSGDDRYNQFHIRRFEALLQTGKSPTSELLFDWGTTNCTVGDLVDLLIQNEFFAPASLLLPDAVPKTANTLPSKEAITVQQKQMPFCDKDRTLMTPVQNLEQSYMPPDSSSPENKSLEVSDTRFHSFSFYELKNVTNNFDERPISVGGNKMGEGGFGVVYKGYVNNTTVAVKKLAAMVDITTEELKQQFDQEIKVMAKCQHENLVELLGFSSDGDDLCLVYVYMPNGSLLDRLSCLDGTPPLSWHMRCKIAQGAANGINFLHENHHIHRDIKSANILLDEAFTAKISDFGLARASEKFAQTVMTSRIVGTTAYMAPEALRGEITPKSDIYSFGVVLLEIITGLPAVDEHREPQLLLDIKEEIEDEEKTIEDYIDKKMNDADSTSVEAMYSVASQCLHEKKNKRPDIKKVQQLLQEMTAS
Method in brief: as §1

NF-κB [1] = experiment: NF-kB SEAP reporter assay in THP-1-Blue NF-κB cells, hIL1B stimulation; format: cell-based; settings: hIL1B 1 ng/mL, read-out: NF-κB IL1B IC50
Protocol: (§2) THP-1-Blue NF-xB cells (InvivoGen) carrying a stable integrated NF-κB-inducible secreted embryonic alkaline phosphatase (SEAP) reporter construct were plated at a concentration of 1×10^5 cells per well. The cells were stimulated with Pam3CSK4 (1 ng/mL) or hIL1B (1 ng/mL). After 10-20 minutes, the cells were then treated with vehicle (DMSO) or serial dilutions of the test compounds (10 doses tested for each test compound, with a 1:10 dilution series starting at 1 μM or 3 μM) with a final volume of 200 μL for 24 hours at 37° C. After 24 hours, the cells were centrifuged and 20 μL supernatant was incubated with 180 μL QUANTI-Blue reagent at 37° C. for 30-60 minutes. The levels of NF-κB-induced was measured in a microplate reader at 620 nm.

NF-κB [2] = experiment: NF-kB SEAP reporter assay in THP-1-Blue NF-κB cells, Pam3CSK4 stimulation; format: cell-based; settings: Pam3CSK4 1 ng/mL, read-out: NF-κB Pam3SCK4 IC50
Protocol: as §2

MOLM14 D835Y cells = experiment: MOLM14 D835Y cell viability assay (Cell Titer Glo); format: cell-based; settings: Homo sapiens, MOLM-14, 48 h
Method in brief: (§3)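 MOLM14 cells carrying FLT3 D835Y or F691L were seeded at 1000 cells/well in RPMI-1640 with 20% FBS and dosed at 22 concentrations, 1:2 dilutions from 10 μM. Viability after 48 h by Cell Titer Glo luminescence; 2.3 μM bortezomib as cytotoxic control.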

MOLM14 F691L cells = experiment: MOLM14 F691L cell viability assay (Cell Titer Glo); format: cell-based; settings: Homo sapiens, MOLM-14, 48 h
Method in brief: as §3

T2 sequence (P51617 whole entry): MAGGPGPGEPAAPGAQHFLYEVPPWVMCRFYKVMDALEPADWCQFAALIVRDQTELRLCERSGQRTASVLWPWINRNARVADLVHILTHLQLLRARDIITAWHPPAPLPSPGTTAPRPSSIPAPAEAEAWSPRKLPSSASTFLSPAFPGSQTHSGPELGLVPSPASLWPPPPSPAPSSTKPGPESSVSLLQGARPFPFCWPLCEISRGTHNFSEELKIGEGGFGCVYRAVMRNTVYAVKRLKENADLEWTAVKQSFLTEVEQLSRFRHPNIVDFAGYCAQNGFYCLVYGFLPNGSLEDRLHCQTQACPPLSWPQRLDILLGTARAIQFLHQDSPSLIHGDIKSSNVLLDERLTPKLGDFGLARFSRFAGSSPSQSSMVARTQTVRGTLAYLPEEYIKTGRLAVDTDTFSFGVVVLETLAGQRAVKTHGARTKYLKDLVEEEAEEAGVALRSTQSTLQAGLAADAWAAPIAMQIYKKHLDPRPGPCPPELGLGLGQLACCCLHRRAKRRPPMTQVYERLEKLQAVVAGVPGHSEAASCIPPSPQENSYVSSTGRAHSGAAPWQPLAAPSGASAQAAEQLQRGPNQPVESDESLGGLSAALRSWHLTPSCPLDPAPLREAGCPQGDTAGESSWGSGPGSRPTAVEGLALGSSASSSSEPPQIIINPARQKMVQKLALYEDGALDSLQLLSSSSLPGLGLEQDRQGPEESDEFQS

Row | SMILES | IC50 (FLT3) [nM] | IC50 (IRAK1) [nM] | IC50 (IRAK4) [nM] | IC50 (NF-κB [1]; 24 h) [nM] | IC50 (NF-κB [2]; 24 h) [nM] | IC50 (MOLM14 D835Y cells) [nM] | IC50 (NF-κB [1]; 24 hours) [nM] | IC50 (NF-κB [2]; 24 hours) [nM] | IC50 (MOLM14 F691L cells) [nM]
1 | F[C@H]1CNC[C@@H]1Nc1cccc(-c2cnc3cnc(OCC(F)(F)F)cn23)n1 [Compound 36, N-((3S,4S)-4-fluoropyrrolidin-3-yl)-6-(6-(2,2,2-trifluoroethoxy)imidazo[1,2-a]pyrazin-3-yl)pyridin-2-amine] | < 0.5 | 190 | 1 | 40 | 17 |  |  |  | 
2 | CC(C)Oc1cn2c(-c3cccc(N[C@H]4CNC[C@@H]4F)n3)cnc2cn1 [Compound 59, N-((3S,4S)-4-fluoropyrrolidin-3-yl)-6-(6-isopropoxyimidazo[1,2-a]pyrazin-3-yl)pyridin-2-amine] | < 0.5 | 696 | < 0.5 | 144 | 24 |  |  |  | 
3 | O=S1(=O)CCCN1c1cn2c(-c3cccc(N[C@@H]4CCCNC4)n3)cnc2cn1 [Compound 96, (R)-2-(3-(6-(piperidin-3-ylamino)pyridin-2-yl)imidazo[1,2-a]pyrazin-6-yl)isothiazolidine 1,1-dioxide] | 0.9 | 49 | 2 |  |  | 7 | 263 | 20 | 39
4 | F[C@H]1CNC[C@@H]1Nc1cccc(-c2cnc3cnc(OCC4CC4)cn23)n1 [compound 60, 6-(6-(cyclopropylmethoxy)imidazo[1,2-a]pyrazin-3-yl)-N-((3S,4S)-4-fluoropyrrolidin-3-yl)pyridin-2-amine] | < 0.5 | 833 | 2 | 356 | 34 |  |  |  | 
